Molecules are shown by their SMILES. Some results are limits rather than exact numbers.

A word on the EC50: it is the concentration giving half of the maximal effect.

Format in all cases: biochemical
Test [1] addresses T1, JAK2 (catalytic domain, His-tag) (Homo sapiens, UniProt O60674).
T1 construct: All four purified enzymes contain only the catalytic domain; His (N); purchased Carna Biosciences, Inc; host or cells: baculovirus expression system
Put plainly: JAK kinase assay (HTRF, phosphorylation of TK substrate-biotin), JAK2. To be noted: HTRF assay, ATP at Km (4 μM); read-out: JAK2 kinase inhibitory activity (EC50 indicator). The method in brief: (§1)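 Catalytic-domain kinases phosphorylated 1 μM biotin-TK substrate at ATP Km (JAK1 7 μM, JAK2 4 μM, JAK3 2 μM, TYK2 13 μM) in Hepes pH 7.0 with DTT and MgCl2, for 20-30 min at RT; JAK1 and TYK2 also had 50 nM SEB. Detection was by HTRF (streptavidin-XL665/Cryptate antibody) overnight, giving EC50.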
For orientation: In TR-FRET formats the signal depends on donor and acceptor labels being close together.

Test [2] deals with T2, JAK1 (aa 850-1154, catalytic domain, GST-tag) (Homo sapiens, UniProt P23458).
T2 construct: JAK1 (aa 850-1154) and TYK2 (aa 871-1187) are expressed with an N-terminally fused GST-tag; GST (N); purchased Carna Biosciences, Inc; host or cells: baculovirus expression system
T2 sequence (P23458 850-1154): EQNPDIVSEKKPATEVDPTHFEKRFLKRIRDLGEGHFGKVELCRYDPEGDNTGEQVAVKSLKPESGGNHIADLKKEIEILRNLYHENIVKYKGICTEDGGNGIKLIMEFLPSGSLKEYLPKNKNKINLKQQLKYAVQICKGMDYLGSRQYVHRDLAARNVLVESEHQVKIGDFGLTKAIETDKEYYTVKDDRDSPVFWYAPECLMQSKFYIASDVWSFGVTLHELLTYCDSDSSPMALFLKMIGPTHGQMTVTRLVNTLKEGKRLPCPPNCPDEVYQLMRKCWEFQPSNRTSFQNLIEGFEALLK
Put plainly: JAK kinase assay (HTRF, phosphorylation of TK substrate-biotin), JAK1. To be noted: HTRF assay, ATP at Km (7 μM); read-out: JAK1 kinase inhibitory activity (EC50 indicator). The method, boiled down: as §1

Test [3] has as its target T3, TYK2 (aa 871-1187, catalytic domain, GST-tag) (Homo sapiens, UniProt P29597).
T3 construct: JAK1 (aa 850-1154) and TYK2 (aa 871-1187) are expressed with an N-terminally fused GST-tag; GST (N); purchased Carna Biosciences, Inc; host or cells: baculovirus expression system
T3 sequence (P29597 871-1187): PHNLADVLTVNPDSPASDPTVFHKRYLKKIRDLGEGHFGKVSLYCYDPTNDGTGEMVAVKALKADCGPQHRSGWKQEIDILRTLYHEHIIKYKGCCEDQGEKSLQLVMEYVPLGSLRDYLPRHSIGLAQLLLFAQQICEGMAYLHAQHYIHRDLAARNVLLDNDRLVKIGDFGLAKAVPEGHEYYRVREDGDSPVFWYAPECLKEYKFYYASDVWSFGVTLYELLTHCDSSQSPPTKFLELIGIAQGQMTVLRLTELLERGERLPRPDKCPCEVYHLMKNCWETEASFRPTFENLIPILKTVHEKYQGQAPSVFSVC
Put plainly: JAK kinase assay (HTRF, phosphorylation of TK substrate-biotin), TYK2. The note with it: HTRF assay, ATP at Km (13 μM); read-out: TYK2 kinase inhibitory activity (EC50 indicator). The method in brief: as §1

Test [4] has as its target T4, JAK3 (catalytic domain, His-tag) (Homo sapiens, UniProt P52333).
T4 construct: All four purified enzymes contain only the catalytic domain; His (N); purchased Carna Biosciences, Inc; host or cells: baculovirus expression system
Put plainly: JAK kinase assay (HTRF, phosphorylation of TK substrate-biotin), JAK3. The note with it: HTRF assay, ATP at Km (2 μM); read-out: JAK3 kinase inhibitory activity (EC50 indicator). The method in brief:
as §1

T4 sequence (P52333 822-1111 limits assumed): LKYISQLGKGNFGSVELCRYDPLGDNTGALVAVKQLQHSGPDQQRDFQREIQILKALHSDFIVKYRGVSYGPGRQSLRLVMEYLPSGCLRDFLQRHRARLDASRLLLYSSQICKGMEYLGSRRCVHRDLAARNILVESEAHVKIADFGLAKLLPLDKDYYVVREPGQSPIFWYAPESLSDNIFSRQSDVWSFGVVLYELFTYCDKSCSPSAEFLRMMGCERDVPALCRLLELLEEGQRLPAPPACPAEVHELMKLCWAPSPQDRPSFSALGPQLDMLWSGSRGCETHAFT
T1 sequence (O60674 849-1124 limits assumed): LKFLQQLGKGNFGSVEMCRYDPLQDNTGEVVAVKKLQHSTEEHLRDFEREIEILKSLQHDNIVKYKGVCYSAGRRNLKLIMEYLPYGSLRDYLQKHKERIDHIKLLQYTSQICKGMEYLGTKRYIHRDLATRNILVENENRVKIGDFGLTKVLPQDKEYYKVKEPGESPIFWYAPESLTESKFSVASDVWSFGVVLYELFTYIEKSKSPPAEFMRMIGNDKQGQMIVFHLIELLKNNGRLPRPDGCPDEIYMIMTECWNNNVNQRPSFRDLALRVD

`N#CCOc1cccc(C(=O)N2[C@@H]3CC[C@@H]2CN(c2ncnc4[nH]ccc24)C3)c1` [Example 343, {3-[3-(7H-Pyrrolo[2,3-d]pyrimidin-4-yl)-3,8-diaza-bicyclo[3.2.1]octane-8-carbonyl]-phenoxy}-acetonitrile]: the EC50 in test [1] was < 0.1 µM; in test [2], < 0.1 µM; in test [3], > 0.5 µM; in test [4], 0.1 to 0.5 µM.

Consider `O=C(c1cccc2[nH]ccc12)N1[C@@H]2CC[C@H]1CN(c1ncnc3[nH]ccc13)C2` [Example 344, (1H-Indol-4-yl)-[3-(7H-pyrrolo[2,3-d]pyrimidin-4-yl)-3,8-diaza-bicyclo[3.2.1]oct-8-yl]-methanone], for which the EC50 is < 0.1 µM in test [1], 0.1 to 0.5 µM in test [2], 0.1 to 0.5 µM in test [3] and < 0.1 µM in test [4].

On to `O=C(c1cnc2ccccc2n1)N1[C@@H]2CC[C@H]1CN(c1ncnc3[nH]ccc13)C2` [Example 345, [3-(7H-Pyrrolo[2,3-d]pyrimidin-4-yl)-3,8-diaza-bicyclo[3.2.1]oct-8-yl]-quinoxalin-2-yl-methanone], for which the EC50 was < 0.1 µM in test [1], < 0.1 µM in test [2], > 0.5 µM in test [3] and 0.1 to 0.5 µM in test [4].

Take `N#CCc1cccc(CC(=O)N2[C@@H]3CC[C@@H]2CN(c2ncnc4[nH]ccc24)C3)c1` [Example 346, (3-{2-Oxo-2-[3-(7H-pyrrolo[2,3-d]pyrimidin-4-yl)-3,8-diaza-bicyclo[3.2.1]oct-8-yl]-ethyl}-phenyl)-acetonitrile]: the 50% effective concentration (EC50) in test [1] is 0.1 to 0.5 µM; in test [2] it was 0.1 to 0.5 µM; in test [3], > 0.5 µM; in test [4] it was > 0.5 µM.

For the compound `N#CCc1ccc(CC(=O)N2[C@@H]3CC[C@@H]2CN(c2ncnc4[nH]ccc24)C3)cc1` [Example 347, (4-{2-Oxo-2-[3-(7H-pyrrolo[2,3-d]pyrimidin-4-yl)-3,8-diaza-bicyclo[3.2.1]oct-8-yl]-ethyl}-phenyl)-acetonitrile], the concentration giving a half-maximal response (EC50) in test [1] is 0.1 to 0.5 µM; in test [2] it was 0.1 to 0.5 µM; in test [3], > 0.5 µM; in test [4], > 0.5 µM.

In the case of `O=C(c1cc2ccccc2[nH]1)N1[C@@H]2CC[C@H]1CN(c1ncnc3[nH]ccc13)C2` [Example 348, (1H-Indol-2-yl)-[3-(7H-pyrrolo[2,3-d]pyrimidin-4-yl)-3,8-diaza-bicyclo[3.2.1]oct-8-yl]-methanone], the EC50 in test [1] is < 0.1 µM; in test [2], < 0.1 µM; in test [3] it was > 0.5 µM; in test [4], < 0.1 µM.

Consider `O=C(Cc1ccc(C(F)(F)F)cc1)N1[C@@H]2CC[C@@H]1CN(c1ncnc3[nH]ccc13)C2` [Example 349, 1-[3-(7H-Pyrrolo[2,3-d]pyrimidin-4-yl)-3,8-diaza-bicyclo[3.2.1]oct-8-yl]-2-(4-trifluoromethyl-phenyl)-ethanone], for which the EC50 was 0.1 to 0.5 µM in test [1], 0.1 to 0.5 µM in test [2], > 0.5 µM in test [3] and 0.1 to 0.5 µM in test [4].

On to `N#Cc1ccc(C(=O)N2[C@@H]3CC[C@@H]2CN(c2ncnc4[nH]ccc24)C3)cc1F` [Example 350, 2-Fluoro-4-[3-(7H-pyrrolo[2,3-d]pyrimidin-4-yl)-3,8-diaza-bicyclo[3.2.1]octane-8-carbonyl]-benzonitrile], for which the EC50 in test [1] is < 0.1 µM; in test [2], < 0.1 µM; in test [3], 0.1 to 0.5 µM; in test [4] it was < 0.1 µM.

Turning to `N#Cc1ccc(C(=O)N2[C@@H]3CC[C@@H]2CN(c2ncnc4[nH]ccc24)C3)c(F)c1` [Example 351, 3-Fluoro-4-[3-(7H-pyrrolo[2,3-d]pyrimidin-4-yl)-3,8-diaza-bicyclo[3.2.1]octane-8-carbonyl]-benzonitrile], the EC50 was < 0.1 µM in test [1], < 0.1 µM in test [2], > 0.5 µM in test [3] and 0.1 to 0.5 µM in test [4].

The values above are taken from patent US9346809B2 (LEO PHARMA A/S, priority 2009, dated 2016).
